# From PubChem BioAssay AID1918954 (Molecular Pharmacology Branch, DTP, NCI, 2023)
# System: MDA-MB-468 complex spheroids with HUVEC/MSC, viability
# Assay: Anticancer human tumor MDA-MB-468 cell line growth inhibition;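 note: spheroids exposed to agents for seven days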;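 for viability, T/C: 100% = DMSO vehicle control viability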
# Conditions: for IC50: curve of first compound; for viability, T/C: stronger effect = lower value
# How it was run: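 Complex spheroids of tumor cells with HUVEC and human MSCs, exposed to iadademstat combined with other agents. Each agent tested in half-log steps from near clinical Cmax (else 10 microM top), DMSO ≤0.25%.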
# [1] = second compound 0.1 µM, first compound 0.00949 µM
# [2] = second compound 0.1 µM, first compound 0.03 µM
# [3] = second compound 0.1 µM, first compound 0.0949 µM
# [4] = second compound 0.1 µM, first compound 0.3 µM
# [5] = second compound 0.316 µM, first compound 0.00949 µM
# [6] = second compound 0.316 µM, first compound 0.03 µM
# [7] = second compound 0.316 µM, first compound 0.0949 µM
# [8] = second compound 0.316 µM, first compound 0.3 µM
# [9] = second compound 1 µM, first compound 0.00949 µM
# [10] = second compound 1 µM, first compound 0.03 µM
# [11] = second compound 1 µM, first compound 0.0949 µM
# [12] = second compound 1 µM, first compound 0.3 µM
# [13] = second compound 3.16 µM, first compound 0.00949 µM
# [14] = second compound 3.16 µM, first compound 0.03 µM
# [15] = second compound 3.16 µM, first compound 0.0949 µM
# [16] = second compound 3.16 µM, first compound 0.3 µM
# [17] = second compound 10 µM, first compound 0.00949 µM
# [18] = second compound 10 µM, first compound 0.03 µM
# [19] = second compound 10 µM, first compound 0.0949 µM
# [20] = second compound 10 µM, first compound 0.3 µM
# [21] = second compound 0.1 µM, first compound 0.000949 µM
# [22] = second compound 0.1 µM, first compound 0.003 µM
# [23] = second compound 0.316 µM, first compound 0.000949 µM
# [24] = second compound 0.316 µM, first compound 0.003 µM
# [25] = second compound 1 µM, first compound 0.000949 µM
# [26] = second compound 1 µM, first compound 0.003 µM
# [27] = second compound 3.16 µM, first compound 0.000949 µM
# [28] = second compound 3.16 µM, first compound 0.003 µM
# [29] = second compound 10 µM, first compound 0.000949 µM
# [30] = second compound 10 µM, first compound 0.003 µM
structure (smiles),measurement,setting,value
CCN(c1cc(-c2ccc(CN3CCOCC3)cc2)cc(C(=O)NCc2c(C)cc(C)[nH]c2=O)c1C)C1CCOCC1 + NC1CC1c1ccc(-c2cccc(O)c2)cc1,IC50,second compound 0.1 µM,219 nM
same,IC50,second compound 0.316 µM,214 nM
same,IC50,second compound 1 µM,171 nM
same,IC50,second compound 3.16 µM,171 nM
same,IC50,second compound 10 µM,69.1 nM
same,"viability, T/C",[1],98.8%
same,"viability, T/C",[2],89.1%
same,"viability, T/C",[3],64.3%
same,"viability, T/C",[4],42.8%
same,"viability, T/C","second compound 0.1 µM, first compound 0.949 µM",34.9%
same,"viability, T/C","second compound 0.1 µM, first compound 3 µM",23%
same,"viability, T/C",[5],90%
same,"viability, T/C",[6],98.7%
same,"viability, T/C",[7],62.1%
same,"viability, T/C",[8],46.3%
same,"viability, T/C","second compound 0.316 µM, first compound 0.949 µM",33.7%
same,"viability, T/C","second compound 0.316 µM, first compound 3 µM",25.8%
same,"viability, T/C",[9],82.3%
same,"viability, T/C",[10],79%
same,"viability, T/C",[11],57.2%
same,"viability, T/C",[12],41.7%
same,"viability, T/C","second compound 1 µM, first compound 0.949 µM",28.6%
same,"viability, T/C","second compound 1 µM, first compound 3 µM",22.3%
same,"viability, T/C",[13],80%
same,"viability, T/C",[14],86.1%
same,"viability, T/C",[15],61.8%
same,"viability, T/C",[16],37.5%
same,"viability, T/C","second compound 3.16 µM, first compound 0.949 µM",29.3%
same,"viability, T/C","second compound 3.16 µM, first compound 3 µM",22.1%
same,"viability, T/C",[17],76.6%
same,"viability, T/C",[18],60.4%
same,"viability, T/C",[19],46.5%
same,"viability, T/C",[20],33.7%
same,"viability, T/C","second compound 10 µM, first compound 0.949 µM",29%
same,"viability, T/C","second compound 10 µM, first compound 3 µM",22.3%
O=C(c1cc(Cc2n[nH]c(=O)c3ccccc23)ccc1F)N1CCN(C(=O)C2CC2)CC1 + NC1CCC(NC2CC2c2ccccc2)CC1,IC50,second compound 0.1 µM,775 nM
same,IC50,second compound 0.316 µM,812 nM
same,IC50,second compound 1 µM,786 nM
same,IC50,second compound 3.16 µM,909 nM
same,IC50,second compound 10 µM,411 nM
same,"viability, T/C","second compound 0.1 µM, first compound 0.0316 µM",89.5%
same,"viability, T/C","second compound 0.1 µM, first compound 0.1 µM",103%
same,"viability, T/C","second compound 0.1 µM, first compound 0.316 µM",76.2%
same,"viability, T/C","second compound 0.1 µM, first compound 1 µM",42.6%
same,"viability, T/C","second compound 0.1 µM, first compound 3.16 µM",19.3%
same,"viability, T/C","second compound 0.1 µM, first compound 10 µM",13.6%
same,"viability, T/C","second compound 0.316 µM, first compound 0.0316 µM",93.8%
same,"viability, T/C","second compound 0.316 µM, first compound 0.1 µM",87.8%
same,"viability, T/C","second compound 0.316 µM, first compound 0.316 µM",71.4%
same,"viability, T/C","second compound 0.316 µM, first compound 1 µM",47.7%
same,"viability, T/C","second compound 0.316 µM, first compound 3.16 µM",18.2%
same,"viability, T/C","second compound 0.316 µM, first compound 10 µM",13.8%
same,"viability, T/C","second compound 1 µM, first compound 0.0316 µM",90.2%
same,"viability, T/C","second compound 1 µM, first compound 0.1 µM",80.8%
same,"viability, T/C","second compound 1 µM, first compound 0.316 µM",71.7%
same,"viability, T/C","second compound 1 µM, first compound 1 µM",45.2%
same,"viability, T/C","second compound 1 µM, first compound 3.16 µM",21%
same,"viability, T/C","second compound 1 µM, first compound 10 µM",15.1%
same,"viability, T/C","second compound 3.16 µM, first compound 0.0316 µM",68.4%
same,"viability, T/C","second compound 3.16 µM, first compound 0.1 µM",75.3%
same,"viability, T/C","second compound 3.16 µM, first compound 0.316 µM",77%
same,"viability, T/C","second compound 3.16 µM, first compound 1 µM",47.9%
same,"viability, T/C","second compound 3.16 µM, first compound 3.16 µM",20.8%
same,"viability, T/C","second compound 3.16 µM, first compound 10 µM",17%
same,"viability, T/C","second compound 10 µM, first compound 0.0316 µM",73.9%
same,"viability, T/C","second compound 10 µM, first compound 0.1 µM",65.8%
same,"viability, T/C","second compound 10 µM, first compound 0.316 µM",53.4%
same,"viability, T/C","second compound 10 µM, first compound 1 µM",38.9%
same,"viability, T/C","second compound 10 µM, first compound 3.16 µM",23.6%
same,"viability, T/C","second compound 10 µM, first compound 10 µM",18.6%
Nc1ncn(C2CC(O)C(CO)S2)c(=O)n1 (stereo not given) + NC1CCC(NC2CC2c2ccccc2)CC1,IC50,second compound 0.1 µM,88.3 nM
same,IC50,second compound 0.316 µM,90.5 nM
same,IC50,second compound 1 µM,80.4 nM
same,IC50,second compound 3.16 µM,65.7 nM
same,IC50,second compound 10 µM,11.6 nM
same,"viability, T/C",[21],90.8%
same,"viability, T/C",[22],95.7%
same,"viability, T/C",[1],76.8%
same,"viability, T/C",[2],59.6%
same,"viability, T/C",[3],54.5%
same,"viability, T/C",[4],35%
same,"viability, T/C",[23],89.7%
same,"viability, T/C",[24],80%
same,"viability, T/C",[5],72.8%
same,"viability, T/C",[6],71.3%
same,"viability, T/C",[7],45.6%
same,"viability, T/C",[8],29.8%
same,"viability, T/C",[25],76.5%
same,"viability, T/C",[26],87.8%
same,"viability, T/C",[9],76.1%
same,"viability, T/C",[10],64.1%
same,"viability, T/C",[11],48.5%
same,"viability, T/C",[12],38.1%
same,"viability, T/C",[27],81.2%
same,"viability, T/C",[28],68.3%
same,"viability, T/C",[13],76%
same,"viability, T/C",[14],67.5%
same,"viability, T/C",[15],41.8%
same,"viability, T/C",[16],33.7%
same,"viability, T/C",[29],64.6%
same,"viability, T/C",[30],53%
same,"viability, T/C",[17],54.5%
same,"viability, T/C",[18],43%
same,"viability, T/C",[19],40%
same,"viability, T/C",[20],31.1%
Nc1ccn(C2OC(CO)C(O)C2(F)F)c(=O)n1 (stereo not given) + NC1CC1c1ccc(-c2cccc(O)c2)cc1,IC50,second compound 0.1 µM,< 0.949 nM
same,IC50,second compound 0.316 µM,< 0.949 nM
same,IC50,second compound 1 µM,< 0.949 nM
same,IC50,second compound 3.16 µM,< 0.949 nM
same,IC50,second compound 10 µM,< 0.949 nM
same,"viability, T/C",[21],33.8%
same,"viability, T/C",[22],14.3%
same,"viability, T/C",[1],4.63%
same,"viability, T/C",[2],3.79%
same,"viability, T/C",[3],3.9%
same,"viability, T/C",[4],3.38%
same,"viability, T/C",[23],34.3%
same,"viability, T/C",[24],14.2%
same,"viability, T/C",[5],4.2%
same,"viability, T/C",[6],3.68%
same,"viability, T/C",[7],3.51%
same,"viability, T/C",[8],3.68%
same,"viability, T/C",[25],32.4%
same,"viability, T/C",[26],12.8%
same,"viability, T/C",[9],4.05%
same,"viability, T/C",[10],3.61%
same,"viability, T/C",[11],3.27%
same,"viability, T/C",[12],3.33%
same,"viability, T/C",[27],28.3%
same,"viability, T/C",[28],11.9%
same,"viability, T/C",[13],4.05%
same,"viability, T/C",[14],3.61%
same,"viability, T/C",[15],3.53%
same,"viability, T/C",[16],3.69%
same,"viability, T/C",[29],24.4%
same,"viability, T/C",[30],12.5%
same,"viability, T/C",[17],4.33%
same,"viability, T/C",[18],3.84%
same,"viability, T/C",[19],3.5%
same,"viability, T/C",[20],3.65%
